Key:
[1] = biological target: T1, fl-NCoR1 (Homo sapiens, UniProt O75376); experiment: SPR binding of TasQ to immobilized fl-NCoR1; details: compound in solution
T1 construct: (N-terminal FLAG-tagged; AA 1-2440); FLAG (N); purchased Abcam ab82239
Procedure: (§1) Surface Plasmon Resonance (SPR) Binding Analysis. SPR analysis was performed on the Biacore 3000™ system using CM5 sensor chips, certified buffers (HBS-P—10 mM HEPES, 0.15 M NaCl, pH 7.4, containing 0.005% v/v Surfactant P; HBS-EP-HBS-P with 3 mM EDTA) and reagents for immobilization and surface regeneration from Biacore, GE Healthcare, Uppsala Sweden. Evaluation of sensorgrams was performed using the BIA-evaluation Software version 4.1 and GraphPad Prism 4. Buffer of protein reagents were changed to HBS-P on Zeba spin desalting columns (Thermo Scientific) prior to being used in SPR analysis (Isaacs 2013).
B. Binding of TasQ to immobilized HDAC4 and NCoR1. Different variants of HDAC4 (full-length wild-type and mutant forms and the truncated protein) and full-length NCoR1 were immobilized on a CM5 chip using random amine coupling. Briefly, proteins were dissolved in 10 mM sodium acetate buffer at pH 5.0 or 5.5 and immobilized to the aimed level using the standard protocol from GE Healthcare. Serially diluted TasQ in HBS-P buffer with 10 or 20 μM Zn was injected (for 2 or 3 min at a flow rate of 30 μl/min) either directly or after a 1st injection of 1 mM DTT to reduce cysteines in the zinc conformation site in HDAC4. Regeneration was made with a short pulse of HBS-EP.
Thus, TasQ's inhibition of HDAC4/NCoR1 formation involves only its binding to HDAC4. […]

[2] = biological target: T2, HDAC4-NCoR1 complex (Homo sapiens, UniProt P56524); experiment: SPR inhibition of HDAC4-NCoR1 interaction; assay type: binding
T2 construct: Full-length (fl) [A.A. 1-1082] recombinant human histone deacetylase 4 (rhHDAC4) protein; FLAG (N); GST (given as 'with or without'); host or cells: HEK293-T (HDAC4)
T2 sequence (P56524 whole entry, one chain of several): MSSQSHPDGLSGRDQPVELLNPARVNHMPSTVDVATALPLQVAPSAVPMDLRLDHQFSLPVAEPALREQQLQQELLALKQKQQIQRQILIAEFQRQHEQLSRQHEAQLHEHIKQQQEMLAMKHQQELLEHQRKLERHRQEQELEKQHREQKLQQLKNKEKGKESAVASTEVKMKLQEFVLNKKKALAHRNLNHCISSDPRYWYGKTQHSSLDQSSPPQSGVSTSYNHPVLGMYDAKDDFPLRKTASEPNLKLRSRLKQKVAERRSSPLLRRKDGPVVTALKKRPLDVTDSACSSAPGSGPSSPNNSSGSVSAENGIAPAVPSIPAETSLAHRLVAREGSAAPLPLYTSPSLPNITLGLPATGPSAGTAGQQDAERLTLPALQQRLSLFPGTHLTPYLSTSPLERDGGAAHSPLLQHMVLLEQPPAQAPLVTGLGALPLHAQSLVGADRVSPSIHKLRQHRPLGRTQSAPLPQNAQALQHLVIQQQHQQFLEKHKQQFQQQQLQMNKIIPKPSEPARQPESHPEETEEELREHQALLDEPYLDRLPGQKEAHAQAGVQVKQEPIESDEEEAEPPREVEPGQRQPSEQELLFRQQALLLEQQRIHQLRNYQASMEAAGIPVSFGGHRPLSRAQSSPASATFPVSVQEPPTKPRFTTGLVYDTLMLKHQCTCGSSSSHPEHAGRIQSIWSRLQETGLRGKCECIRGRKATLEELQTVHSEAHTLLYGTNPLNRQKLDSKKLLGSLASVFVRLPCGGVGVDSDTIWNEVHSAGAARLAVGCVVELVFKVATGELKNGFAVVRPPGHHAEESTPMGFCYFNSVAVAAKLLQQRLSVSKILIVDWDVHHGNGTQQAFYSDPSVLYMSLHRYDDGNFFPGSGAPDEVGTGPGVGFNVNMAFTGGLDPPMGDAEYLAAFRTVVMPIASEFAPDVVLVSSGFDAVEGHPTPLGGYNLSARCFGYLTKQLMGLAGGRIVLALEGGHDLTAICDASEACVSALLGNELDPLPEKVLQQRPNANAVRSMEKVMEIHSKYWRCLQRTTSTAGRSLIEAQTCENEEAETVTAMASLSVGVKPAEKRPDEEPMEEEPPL
Procedure: as §1
C. Inhibition of HDAC4-NCoR1 interaction by TasQ. The interaction between HDAC4 and NCoR1 was studied either by injecting NCoR over immobilized HDAC4 or with an alternative orientation where HDAC4 was passed over a surface with covalently coupled NCoR1. Whether TasQ can inhibit the formation of the functional HDAC4-NCoR1 complex was tested by pre-incubation with NCoR1 or HDAC4.
To confirm that TasQ inhibits formation of the functional complex between HDAC4 and NCoR1, fl-NCoR1 in solution was injected over immobilized fl-HDAC4 after pre-incubation with TasQ in solution at concentrations ranging from 1 to 100 μM (FIG. 19). […] TasQ in solution inhibits this strong interaction by 50% at 10 μM (FIG. 20). […]

[3] = test system: CWR-22Rv1 parental wild type cells; experiment: In vivo growth of CWR-22Rv1 parental wild type xenografts; parameters: species or system human; details: daily oral 10 mg/kg/d
Text: Prostate Cancer Models. The source, history, and characteristics of the human prostate cancer cell lines and PDXs used, as well as cell culture conditions for their in vitro maintenance and the in vivo protocol for xenograft growth in triple immune-deficient NSG (i.e. NOD.Cg-PrkdcScidIl2rgtmlWji/Szj), adult (>8 week old) male mice obtained from the Sidney Kimmel Comprehensive Cancer Center (SKCCC) Animal Core Facility are described previously (Isaacs 2013; Brennen et al. JCI Insight. 2021, 6(8):e146827; Zhu et al. Oncogene 2020, 39(45): 6935-6949). […] In vitro growth curves were determined as described (Isaacs 2013). In vivo growth response to oral daily TasQ (10 mg/kg/d) of TRAMP-C2 mouse prostate cancers was evaluated in C57BL/6J syngeneic wild type vs. NOX-2 vs. iNOS null male mice obtained from Jackson Laboratory (Bar Harbor, ME). Growth response to oral daily TasQ (10 mg/kg/d) of TRAMP-C2 and B6CaP mouse prostate cancers was also evaluated in S100A9 null C57BL′6J male mice obtained from Dmitry Gabrilovich (Wistar Institute). […] In vitro growth curves were determined as described (Isaacs 2013). Growth response to daily oral TasQ vs. ESATA-20 (both at 10 mg/kg/d) of Myc-CaP-CR mouse prostate cancer was evaluated in syngeneic FVB/NJ castrate male mice from Jackson Laboratory. […]

[4] = cited from earlier work

T1 sequence (O75376 whole entry, the tested form may be a part): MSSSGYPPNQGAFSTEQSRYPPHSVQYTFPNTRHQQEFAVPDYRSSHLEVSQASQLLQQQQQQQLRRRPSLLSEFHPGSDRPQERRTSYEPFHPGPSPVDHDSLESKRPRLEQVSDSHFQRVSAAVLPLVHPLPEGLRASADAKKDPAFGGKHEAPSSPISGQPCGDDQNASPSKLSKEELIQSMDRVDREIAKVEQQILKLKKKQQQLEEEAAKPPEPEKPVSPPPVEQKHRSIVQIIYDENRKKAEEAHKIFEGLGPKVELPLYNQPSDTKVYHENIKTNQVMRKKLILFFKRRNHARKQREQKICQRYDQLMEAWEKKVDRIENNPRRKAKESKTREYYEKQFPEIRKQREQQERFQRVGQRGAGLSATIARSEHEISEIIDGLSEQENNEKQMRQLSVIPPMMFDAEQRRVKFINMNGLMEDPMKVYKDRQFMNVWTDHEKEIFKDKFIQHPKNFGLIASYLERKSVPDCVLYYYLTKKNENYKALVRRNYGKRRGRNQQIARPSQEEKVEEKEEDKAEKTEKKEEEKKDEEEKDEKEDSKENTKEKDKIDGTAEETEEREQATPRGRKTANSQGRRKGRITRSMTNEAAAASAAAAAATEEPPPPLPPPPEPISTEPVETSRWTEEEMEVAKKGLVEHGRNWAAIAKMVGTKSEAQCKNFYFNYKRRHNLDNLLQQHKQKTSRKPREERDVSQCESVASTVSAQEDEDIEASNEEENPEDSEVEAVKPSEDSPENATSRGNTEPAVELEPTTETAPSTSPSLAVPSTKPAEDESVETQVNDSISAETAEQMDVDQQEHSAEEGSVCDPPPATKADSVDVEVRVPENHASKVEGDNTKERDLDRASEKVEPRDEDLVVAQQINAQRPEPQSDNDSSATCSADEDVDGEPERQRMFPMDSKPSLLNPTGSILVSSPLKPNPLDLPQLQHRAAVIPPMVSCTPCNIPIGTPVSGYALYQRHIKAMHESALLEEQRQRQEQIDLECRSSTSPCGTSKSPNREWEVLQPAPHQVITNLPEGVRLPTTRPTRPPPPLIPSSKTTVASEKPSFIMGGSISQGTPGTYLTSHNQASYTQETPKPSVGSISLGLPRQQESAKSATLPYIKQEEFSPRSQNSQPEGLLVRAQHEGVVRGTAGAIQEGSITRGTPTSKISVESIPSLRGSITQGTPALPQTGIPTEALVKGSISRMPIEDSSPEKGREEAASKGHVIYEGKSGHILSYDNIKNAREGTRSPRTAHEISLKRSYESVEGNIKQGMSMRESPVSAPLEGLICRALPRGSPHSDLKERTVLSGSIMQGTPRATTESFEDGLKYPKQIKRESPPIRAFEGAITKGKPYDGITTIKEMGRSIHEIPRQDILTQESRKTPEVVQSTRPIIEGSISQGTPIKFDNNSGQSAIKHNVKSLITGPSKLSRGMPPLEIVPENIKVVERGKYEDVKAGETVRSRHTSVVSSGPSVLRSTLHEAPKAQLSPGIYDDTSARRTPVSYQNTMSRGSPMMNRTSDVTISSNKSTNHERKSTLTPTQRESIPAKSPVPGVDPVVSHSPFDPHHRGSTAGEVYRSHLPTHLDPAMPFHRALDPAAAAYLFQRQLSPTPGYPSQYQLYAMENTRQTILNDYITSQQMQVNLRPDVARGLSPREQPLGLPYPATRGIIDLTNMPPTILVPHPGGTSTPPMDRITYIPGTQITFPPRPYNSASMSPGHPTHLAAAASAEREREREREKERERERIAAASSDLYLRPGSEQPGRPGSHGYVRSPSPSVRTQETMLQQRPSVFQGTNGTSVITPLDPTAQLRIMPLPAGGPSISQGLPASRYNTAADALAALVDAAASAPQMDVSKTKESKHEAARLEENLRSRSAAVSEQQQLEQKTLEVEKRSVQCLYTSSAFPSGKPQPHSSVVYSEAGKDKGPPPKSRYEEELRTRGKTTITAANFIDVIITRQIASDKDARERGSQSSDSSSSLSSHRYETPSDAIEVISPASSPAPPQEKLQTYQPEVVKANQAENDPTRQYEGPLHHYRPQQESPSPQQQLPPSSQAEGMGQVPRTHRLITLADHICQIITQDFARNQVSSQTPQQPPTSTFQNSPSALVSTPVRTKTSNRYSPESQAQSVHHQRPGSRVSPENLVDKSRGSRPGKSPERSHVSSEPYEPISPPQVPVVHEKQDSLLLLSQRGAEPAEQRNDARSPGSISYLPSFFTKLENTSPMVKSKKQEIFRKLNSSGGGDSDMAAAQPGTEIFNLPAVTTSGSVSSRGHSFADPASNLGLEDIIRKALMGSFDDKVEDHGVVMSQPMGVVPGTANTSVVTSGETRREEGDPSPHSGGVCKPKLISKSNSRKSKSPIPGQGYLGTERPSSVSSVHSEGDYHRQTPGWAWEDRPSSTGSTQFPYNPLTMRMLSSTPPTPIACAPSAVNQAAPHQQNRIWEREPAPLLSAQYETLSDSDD

In the case of COc1cccc2c1c(O)c(C(=O)N(C)c1ccc(C(F)(F)F)cc1)c(=O)n2C [TasQ, Tasquinimod], the “binding to immobilized fl-NCoR1 protein” value [1] is reported as “no detectable binding”, the inhibition at 10 µM ([2]; at 10 μM, read-out: inhibition of fl-NCoR1 binding to immobilized fl-HDAC4) is reported as 50% and the IC50 ([2]; sigmoidal dose-response fit, read-out: IC50 for competitive inhibition of fl-HDAC4 binding to immobilized NCoR1) is reported as 1.1 µM. The “growth inhibition of wild type xenografts” value [3] was greater than 80%, the blood concentrations maintained ([4]; daily oral 10 mg/kg/d) was greater than 1000 nM and the serum nadir ([4]; oral 5 mg/kg/d, at 24 hrs) was 1.08 ± 0.21 µM.
